What is called melting point is the temperature, or range, at which the solid turns liquid.

With `O=C1CCCC(C(Sc2ccccc2)c2ccccc2)O1` (centres undefined), the melting point lay in the range of 82 to 84 °C.
`COC(=O)Nc1c(C#N)cnn1-c1ccc(Cl)c(Cl)c1Cl` showed a melting point of 205 to 207 °C.
`CC(C)(C)c1cc(CC2CCCCC2=O)cc(C(C)(C)C)c1O` (centres undefined) yielded a melting point of 79 °C.
Regarding `O=C(C1=C(c2ccccc2)c2ccc(O)cc2CC1)c1ccc(O)cc1`, the melting point was in the range of 205 to 207 °C.
As to `Clc1ccccc1-c1cnc2nncn2n1`, the melting point lay in the range of 145 to 148 °C.
As to `CN(C)c1nc(C(=O)NCCO[N+](=O)[O-])cs1`, the melting point lay within 94 to 95 °C.
For `CNc1ccc(CCc2cc(OC)ccc2OC)cc1C(=O)OC`, the melting point stood at 73 °C.
Next, `O=C(O)c1cc(SC(F)(F)F)c(-c2ccc(Cl)cc2)[nH]1`: 176 to 178 °C; `CCCCCN1C(=O)C(=O)c2c(OC)cccc21`: 80 to 82 °C.
`CC(C)(C)OC(=O)N1Cc2c(Cl)sc(Cl)c2C1` showed a melting point of 112 to 114 °C.
In turn, `OCCSc1nc2ccc(Cc3ccccc3)cc2[nH]1` registered a melting point of 108 to 109 °C.
`COC(=O)NC1(c2ccc(C(C)C)cc2OC)C(=O)c2ccccc2C1=O` came in with a melting point of 153 to 155 °C.
As to `CCOC(=O)c1c(C(F)(F)F)oc2ccc(C(F)(F)F)cc2c1=O`, the melting point lay within 116 to 120 °C.
Next, `CC(=O)c1ccc(-n2c(-c3cc(-c4ccc(S(C)(=O)=O)cc4)c(N4CCOCC4)s3)nc3ccccc3c2=O)cc1`: 239 to 242 °C.
With `O=C(O)/C(=C\c1ccccc1)CC(=O)N1C[C@H]2CCCC[C@H]2C1` the figure was 126 to 128 °C; with `CCCCCCCCCCCCCCOc1ccc(CN(Cc2ccccn2)S(C)(=O)=O)cc1`, 62 to 63 °C.
For `Cc1nccn1CCC(=O)c1nn2c3c(cccc13)CCC2`, the melting point lay within 133 to 134 °C.
As for `NC1=NS(=O)N=C1NCCCOc1cc(CN2CCCCC2)ccn1` (centres undefined), the melting point lay within 154 to 158 °C.
With `COc1ccccc1C1CCC(=O)C=C1C(=O)O` (racemic) the figure was 177 °C.
Take `O=[N+]([O-])c1cc(C(F)(F)F)cc([N+](=O)[O-])c1P(=O)(c1ccccc1)c1ccccc1`: the melting point is 214 to 215 °C.
As for `Cc1ccc(NS(=O)(=O)c2cc(C)c3cc(C(C)C)ccc(C)c2-3)cc1`, the melting point fell in the range of 146 to 148 °C.
`COc1cc(Nc2c(C#N)cnc3cc4cc(OC)c(OCCN5CCN(C)CC5)cc4cc23)c(Cl)cc1F` registered a melting point of 170 to 173 °C.
The compound `CCCCOc1ccc(-c2ccc3c(c2)C=C(C(=O)OC)CCS3(=O)=O)cc1` displayed a melting point of 123 to 125 °C.
For `Cc1ccc(-c2c(Cl)nc(C#N)n2O)cc1`, the melting point fell in the range of 212 to 215 °C.
With `CCN1CCCC1CNC(=O)c1cc(NS(=O)(=O)NC(C)(C)C)c(C)cc1OC` (centres undefined) the figure was 167 to 168 °C.
`COC(=O)C=CC=CCS(=O)(=O)c1ccccc1`: the melting point turned out to be 105 °C.
The compound `CNC(=S)Nc1cc(F)ccc1N1CCOCC1` registered a melting point of 145 to 148 °C.
Compound `COc1cc2ncnc(Nc3ccc(F)c(Cl)c3)c2cc1OCCCC1OCCO1` displayed a melting point of 170 to 171 °C.
As for `COc1nc(C)cnc1NS(=O)(=O)c1cccnc1-c1ccc(OC(C)C(=O)O)cc1` (centres undefined), the melting point fell in the range of 149 to 151 °C.
`CCOC(=O)C1=C(C)NC2=C(C(=O)N(CCO)C2)C1c1ccccc1[N+](=O)[O-]` (centres undefined) displayed a melting point of 210 to 211 °C.
`CC1=NN(C)c2nc(C)c(CCCl)c(=O)n2C1` displayed a melting point of 180 °C.
Next, `O=C1NC(=O)C(Br)(c2ccc(Oc3ccccc3)cc2)C(=O)N1`: 125 to 127 °C; `COC(Cn1cncn1)(OC)c1ccc(Cl)cc1Cl`: 87.7 °C.
In the case of `Cc1nc2c3c(ccc2n1C)C(O)C(OC(=O)C(C)(C)C)C(c1ccccc1)O3` (centres undefined), the melting point came out at 148 °C.
Regarding `CC(=O)CC(=O)C=Cc1ccc2cc[nH]c2c1`, the melting point lay in the range of 138 to 142 °C.
With `Cc1ccc([N+](=O)[O-])cc1N(C)c1nnn[nH]1` the figure was 201 to 205 °C; with `CC(C)n1nc(-c2cc(C#N)c(N)nc2-c2ccccc2)ccc1=O`, 197 to 198 °C; with `N#CC1=C(Nc2cc(C(F)(F)F)ccc2N)CSC1`, 189 °C.
On to `C=CC1CCC2C3CCC4=CC(=O)CCC4(C)C3CCC12C` (centres undefined), for which the melting point was in the range of 122 to 124 °C.
For the compound `CC12C=CC(=O)C=C1CCC1C2CCC2(C)C(=O)CCC12` (centres undefined), the melting point was 138 to 139 °C.
`CC1CC(=O)c2c(C(=O)Nc3ccc4c(c3)OC(C)(C)O4)c[nH]c2C1` (centres undefined) came in with a melting point of 297 to 299 °C.
In the case of `CN(c1cccc2c(F)c(C3=NCC(CC(N)=O)S3)[nH]c12)S(=O)(=O)c1cccs1` (centres undefined), the melting point was 204 to 205 °C.
`CCS(=O)c1ccc(Oc2ccc(Cl)c(Cl)c2)nc1C#N` (centres undefined): the melting point was 138 to 144 °C.
With `CCOc1ccccc1C(=O)Nc1ccc(C(=O)N2CCC(F)(F)/C(=C\C(=O)N(C)C)c3ccccc32)cc1`, the melting point was in the range of 195 to 198 °C.
As to `CN1C(=O)C(C(=O)Nc2ccccc2)Sc2ccccc21` (centres undefined), the melting point lay in the range of 124 to 126 °C.
Take `CCCc1c(CSc2nnc(SCc3ccc(OC(C)C(=O)O)cc3)s2)ccc(C(C)=O)c1O` (centres undefined): the melting point is 138 °C.
`CC1(O)CSC(=S)N1c1ccc(Cl)cn1` (centres undefined) returned a melting point of 95 °C.
Take `CCCCc1nnc(S(=O)Cc2ccc([N+](=O)[O-])cc2)n1Cc1ccc(-c2ccccc2-c2nnn[nH]2)cc1` (centres undefined): the melting point was in the range of 222 to 223 °C.
`COc1ccc(S(=O)(=O)C(CC(=O)NO)Cc2ccc(OCc3ccccc3)cc2)cc1` (centres undefined) came in with a melting point of 128 to 130 °C.
Turning to `CC(C)(C)OC(=O)NCCc1cccc(O)c1`, the melting point lay in the range of 79 to 82 °C.
Take `COc1cc2c(cc1OC)C(c1ccc([N+](=O)[O-])cc1)=NN(c1ccccn1)[C@H](C)C2`: the melting point lay in the range of 210 to 214 °C.
Next, `Fc1ccc(-c2nc3ccccc3n3cncc23)cc1`: 214 to 215 °C.
Consider `CSc1nc(Cl)cc(-c2ccc(C(F)(F)F)cc2)n1`, for which the melting point lay within 93 to 96 °C.
Consider `CC(C)(N)c1ccc(C(=O)Nc2cn3cc(Cl)ccc3n2)cc1`, for which the melting point is 235 to 237 °C.
`COc1ccc(-c2c(Cl)c(Cn3cncn3)nc3sc4c(c23)CCN(Cc2ccccc2)C4)cc1OC` displayed a melting point of 165 to 166 °C.
`O=[N+]([O-])C=C(NCCCOc1cccc(CN2CCCCC2)c1)NCC(O)c1ccc(F)cc1` (centres undefined) had a melting point of 135 to 136 °C.
In turn, `CC(C)(C)OC(=O)C(C1NC(C(=O)O)C2(CCOCC2)S1)N1C(=O)c2ccccc2C1=O` (centres undefined) displayed a melting point of 199 to 200 °C.
On to `O=c1[nH]c2cc(-c3cn4ccccc4n3)ccc2s1`, for which the melting point was more than 270 °C.
With `CC(C)(C)OC(=O)NCCNS(=O)(=O)c1cc([N+](=O)[O-])c(Cl)s1` the figure was 116 °C.
Take `Cc1c(-c2ccc(O)cc2)n(Cc2ccc(C#CCN3CCCC3)cc2)c2ccc(O)cc12`: the melting point was in the range of 174 to 176 °C.
In the case of `CN1CCN(C(=O)OC2C3=C(SCCS3)C(=O)N2c2ccc3ccc(Cl)cc3n2)CC1` (centres undefined), the melting point stood at 192 °C.
Regarding `CCCCCCc1cc(-c2ccccc2)c(OCC(=O)OC)c(-c2ccccc2)c1`, the melting point lay in the range of 87 to 89 °C.
`C=CCN1C(=O)C(O)(CC(=O)N(C)C)c2cc(CO)ccc21` (centres undefined): the melting point turned out to be 125 °C.
As for `CCOC(=O)C(CC(=O)c1ccc(Oc2ccc(C)cc2)cc1)SC(C)=O` (centres undefined), the melting point fell in the range of 85 to 86.5 °C.
As to `CCC(C(=O)c1ccc(Cl)cc1)n1ncn(-c2ccc(N3CCN(c4ccc(O)cc4)CC3)cn2)c1=O` (centres undefined), the melting point amounted to 186 °C.
With `CCN1CCCC(NC(=O)N2CCN(c3ccccc3)CC2)C1` (centres undefined) the figure was 100 to 103 °C.
Next, `COc1ccc(NC(=O)[C@H]2[C@H](c3ccccc3)C23CCCC3)c(OC)n1` (relative stereo): 131 to 133 °C.
Consider `OCC12CO[C@@H](c3ccc(C(F)(F)F)cc3)N1[C@H](c1ccc(C(F)(F)F)cc1)OC2`, for which the melting point is 120 °C.
In turn, `Clc1ccc2nc(N3CCN(c4ncccc4Cl)CC3)[nH]c2c1` registered a melting point of 214 to 215 °C.
In turn, `Cc1ccc2c(=O)n(C3CCC(=O)NC3=O)cnc2c1` (centres undefined) yielded a melting point of 313 to 315 °C.
The compound `CC(C(=O)O)c1ccc(-c2nc3ccccc3o2)c(F)c1` (centres undefined) came in with a melting point of 168 to 171 °C.
With `CC(C)(O)CCCc1onc(-c2ccccc2)c1-c1ccc(S(N)(=O)=O)cc1` the figure was 184 to 185 °C; with `CC(C)(C)c1cc(-c2c(S)ssc2=S)cc(C(C)(C)C)c1O`, 182 °C; with `CS(=O)(=O)N1CCN([C@@H](CNS(=O)(=O)c2ccc(OCc3ccccc3)cc2)C(=O)NO)CC1`, 165 °C.
As for `COc1ccc(C(=CC(=O)N2CCOCC2)c2ccc(O)cc2)cc1OC`, the melting point was 105 to 120 °C.
Next, `NC(=O)CCc1cccc2c1C[C@@H](CCCCc1ccccc1)O2`: 92 to 93 °C; `CCCc1nc(C(=O)OCC)c(C(=O)OCC)[nH]1`: 81 to 83 °C.
Next, `Fc1ccc2[nH]c(C3=Cc4ccccc4C3)cc2c1`: 272 to 275 °C.
With `CC(C)CCCC(C)C1CCC2C3=CC=C4CC(O)C=CC4(C)C3CCC21C` (centres undefined), the melting point was in the range of 126 to 127 °C.
With `CCCn1nc(-c2c(-c3ccccc3)nn3ccc(OC)cc23)ccc1=O`, the melting point came out at 174 °C.
For `CCOc1nc(NCc2ccco2)nc(Nc2ccc(OC)c(OC)c2)n1`, the melting point fell in the range of 100 to 102 °C.
`COc1ccc(CSc2nnc(CCl)s2)cc1` showed a melting point of 60.5 to 63.5 °C.
Next, `Cc1cc(CCCCCOc2c(Cl)cc(C3=NCCO3)cc2Cl)on1`: 42 to 43 °C; `CC(=O)OCCCCc1c(C)[nH]c(C(=O)OC(C)(C)C)c1C`: 62 °C.
In the case of `CCCCCCCSc1nn2c(=O)c(OC)cnc2s1`, the melting point is 68 to 71 °C.
Next, `CN(O)C(=O)C(=O)c1ccc(OCCOc2ccc3ccccc3c2)cc1`: 161 to 165 °C; `COc1ccccc1N1CCN(CCC2CN(C)C(=O)O2)CC1` (centres undefined): 107 to 108 °C.
In turn, `CCCCOC(=O)c1cc2c(cn1)[nH]c1ccccc12` had a melting point of 211 to 212 °C.
Consider `CC(C)(Cc1ccccc1)C(=O)Cn1cncn1`, for which the melting point is 79 °C.

The values above are taken from a melting point compilation (Tetko et al.; mined from patent text by program, amines drawn as free bases though some values may be those of a salt).
